This note sets out measurements from article PMC9295568, “Dual Inhibition of Vacuolar-ATPase and TMPRSS2 Is Required for Complete Blockade of SARS-CoV-2 Entry into Cells” (Antimicrobial Agents and Chemotherapy, 2022).

Format in all cases: cell-based
Data set [1] deals with SARS-CoV-2 PsV B.1.1.7 (Alpha). The data set can be described thus: microbe, parasite or virus in culture. As to conditions: Severe acute respiratory syndrome coronavirus 2, HeLa-ACE2, read-out: IC50, inhibition of PsV entry.
Data set [2] has as its system SARS-CoV-2 PsV (wild-type S protein). In words: microbe, parasite or virus in culture.
The test system of data set [3] is SARS-CoV-2 PsV B.1.351 (Beta). The data set can be described thus: microbe, parasite or virus in culture. The conditions noted are these: Severe acute respiratory syndrome coronavirus 2, HeLa-ACE2, read-out: IC50, inhibition of PsV entry.
For data set [4], the system named is SARS-CoV-2 PsV B.1.1.529 (Omicron). In words: microbe, parasite or virus in culture. As to conditions: Severe acute respiratory syndrome coronavirus 2, Vero/TMPRSS2, read-out: IC50, inhibition of PsV entry.
Data set [5] concerns SARS-CoV-2 PsV (wild-type S protein). The data set can be described thus: microbe, parasite or virus in culture. The conditions noted are these: for IC50: Severe acute respiratory syndrome coronavirus 2, Vero-TMPRSS2 (+TMPRSS2), WT PsV, read-out: IC50, inhibition of PsV entry.
Data set [6] deals with authentic SARS-CoV-2 (SARS-CoV-2/Canada/ON/VIDO-01/2020/Vero'76/p2). In words: microbe, parasite or virus in culture. As to conditions: for IC50: Severe acute respiratory syndrome coronavirus 2, read-out: IC50, authentic SARS-CoV-2.
For data set [7] the test system is unchanged. The data set can be described thus: microbe, parasite or virus in culture. As to conditions: for IC50: Severe acute respiratory syndrome coronavirus 2, Vero 76, read-out: IC50, authentic SARS-CoV-2.
Data set [8] concerns SARS-CoV-2 PsV B.1.1.529 (Omicron). In words: microbe, parasite or virus in culture. The conditions noted are these: Severe acute respiratory syndrome coronavirus 2, HeLa-ACE2, read-out: IC50, inhibition of PsV entry.
The subject of data set [9] is SARS-CoV-2 PsV.
Data set [10] concerns SARS-CoV-2 PsV B.1.1.7 (Alpha). The data set can be described thus: microbe, parasite or virus in culture. As to conditions: Severe acute respiratory syndrome coronavirus 2, Vero/TMPRSS2, read-out: IC50, inhibition of PsV entry.
In data set [11] the test system is SARS-CoV-2 PsV B.1.351 (Beta). The data set can be described thus: microbe, parasite or virus in culture. As to conditions: Severe acute respiratory syndrome coronavirus 2, Vero/TMPRSS2, read-out: IC50, inhibition of PsV entry.
Data set [12] deals with endosomal acidification in Vero cells. In words: cells. As to conditions: Vero cells, 40 μM, singlet (n=1); for inhibition at 40 µM: Chlorocebus sabaeus, read-out: Percent Inhibition (%) of endosomal acidification. Here is the method:
Inhibition of endosomal acidification was measured using LysoTracker Red DND-99 (ThermoFisher). […] Data were plotted using Prism 9 (GraphPad).

Data set [13] can be described thus: Cell viability (CellTiter-Glo), HeLa-ACE2 cells. The conditions noted are these: human, read-out: half-cytotoxic concentration (CC50). Here is the method: (§1) In order to confirm that the reduced luminescence was not related to cell toxicity, HeLa-ACE2 and Vero-TMPRSS2 cell viability upon incubation with serial dilutions of the sample compounds were tested in parallel to the neutralization assay. […] Cell viability was monitored by adding 50 μL of CellTiter-Glo reagent (Promega) to 200 μL of media containing cells. After a 10-minute incubation, 100 μL volume was transferred to a 96-well white plate (Sigma-Aldrich) to measure luminescence using a Synergy Neo2 Multi-Mode Assay Microplate Reader (Biotek Instruments). As an additional measure of cell toxicity Vero cell, lacking TMPRSS2, viability was measured using PrestoBlue (ThermoFisher). 10,000 cells/well of pre-seeded Vero cells were cocultured with the same serial dilutions of the sample compounds at 37°C for 48 h. At 48 h, 10 μL of PrestoBlue (ThermoFisher) was added to 100 μL of media containing cells. After a 2 h incubation, fluorescence was measured using a Spectromax m5e (Molecular Devices) at an excitation of 555 nm and emission of 585 nm. Data were plotted and half-cytotoxic concentration (CC50) values were calculated using Prims 9 (GraphPad).

The test system of data set [14] is endosomal acidification in HeLa-ACE2 cells. The data set can be described thus: Inhibition of endosomal acidification (LysoTracker Red DND-99), HeLa-ACE2 cells. Here is the method: Inhibition of endosomal acidification was measured using LysoTracker Red DND-99 (ThermoFisher). HeLa-ACE2 and Vero-TMPRSS2 cells were prepared following the above-mentioned protocol, where 10,000 cells/well of pre-seeded cells were cocultured with the same serial dilutions of the sample compounds at 37°C for 2 h. Following this, 0.1 μM final concentration of LysoTracker Red DND-99 (ThermoFisher) was added to each well and incubated for 30 min at 37°C. The cell medium was then replaced with 100 μL of FluoroBrite DMEM (ThermoFisher). Fluorescence was measured using a Synergy Neo2 Multi-Mode Assay Microplate Reader (Biotek Instruments) while employing a Texas Red filter. Data were plotted and IC50 values were calculated using Prism 9 (GraphPad).

The test system of data set [15] is HeLa-ACE2 cells. The data set can be described thus: Cell viability (CellTiter-Glo), HeLa-ACE2 cells. As to conditions: same dose range as PsV assay. Here is the method:
as §1

The mark [16] stands for this setting: Severe acute respiratory syndrome coronavirus 2, HeLa-ACE2, read-out: IC50, inhibition of PsV entry, HeLa-ACE2 (-TMPRSS2), wild-type S PsV.
[17] abbreviates: HeLa-ACE2, concentrations up to 40 μM.
Setting [18] is: HeLa-ACE2, concentrations higher than 1 μM.

Where a name gives a salt, the structure may show the parent alone. Read-outs that look alike come from different tables or passages of the source.

Regarding `CN(C)C(=O)COC(=O)Cc1ccc(OC(=O)c2ccc(NC(=N)N)cc2)cc1` [Camostat], the IC50 in data set [1] was more than 300000 nM; in data set [2] (Severe acute respiratory syndrome coronavirus 2, HeLa-ACE2, read-out: IC50, inhibition of PsV entry, HeLa-ACE2 (-TMPRSS2), WT PsV), more than 300000 nM; in data set [2] (setting [16]), more than 200000 nM; in [3] it was more than 300000 nM; in data set [4] it was more than 7500 nM; in data set [5], 252 nM. Further, the IC50 is 38 nM in data set [6]; more than 100000 nM in data set [7]; more than 300000 nM in data set [8]; 133 nM in data set [10]; 275 nM in [11]. The “inhibition of PsV entry (in words)” value in data set [2] (HeLa-ACE2 cells lacking TMPRSS2) is given as “unable to inhibit”. Moreover, the “inhibition of PsV entry by single compound (in words)” value in data set [9] is “neither Camostat nor bafilomycin A1 alone fully inhibited PsV entry”.
For the compound `O=C(Nc1cc(Cl)cc(Cl)c1O)c1c(O)c(Cl)cc(Cl)c1Cl` [Oxyclozanide, oxyclozanide], the “effect on infection levels (in words)” value in [2] (setting [17]) was “did not alter”. Moreover, in [12], the inhibition at 40 µM is 55%. Further, the CC50 in [13] amounted to 18700 nM. Besides, the “effect on endosomal acidification (in words)” value in [14] (setting [17]) is listed as “did not alter”.
Consider `C[C@H]1CC[C@]2(NC1)O[C@H]1C[C@H]3[C@@H]4CC[C@H]5C[C@@H](O[C@@H]6O[C@H](CO)[C@H](O[C@@H]7O[C@H](CO)[C@@H](O)[C@H](O[C@@H]8OC[C@@H](O)[C@H](O)[C@H]8O)[C@H]7O[C@@H]7O[C@H](CO)[C@@H](O)[C@H](O)[C@H]7O)[C@H](O)[C@H]6O)CC[C@]5(C)[C@H]4CC[C@]3(C)[C@H]1[C@@H]2C` [TOMATINE], for which the inhibition at 40 µM in data set [12] was 72%.
On to `CN(C)CCOc1ccc(/C(=C(/CCCl)c2ccccc2)c2ccccc2)cc1` [TOREMIPHENE CITRATE], for which, in [12], the “Percent Inhibition (%) of endosomal acidification” value (from here on “Percent Inhibition (%)”) amounted to 68%.
With `COC(=O)C1(C)CCCC2(C)c3ccc(O)c(C(C)C)c3CCC12` (centres unmarked) [TOTAROL-19-CARBOXYLIC ACID, METHYL ESTER], the “Percent Inhibition (%)” value in data set [12] came to 66%.
Regarding `CC(C)c1c(O)ccc2c1CC[C@H]1C(C)(C)CCC[C@]21C` [TOTAROL], the inhibition at 40 µM in data set [12] is 74%.
On to `Oc1cc(Cl)ccc1Oc1ccc(Cl)cc1Cl` [TRICLOSAN], for which the inhibition at 40 µM in [12] was found to be 96%.
Still for that read-out and setting: under `CN1CCN(CCCN2c3ccccc3Sc3ccc(C(F)(F)F)cc32)CC1` [TRIFLUOPERAZINE HYDROCHLORIDE] stands 77%.
For `CN(C)CCCN1c2ccccc2Sc2ccc(C(F)(F)F)cc21` [TRIFLUPROMAZINE HYDROCHLORIDE], the inhibition at 40 µM in data set [12] was 86%.
For the compound `CC(CN(C)C)CN1c2ccccc2Sc2ccccc21.CC(CN(C)C)CN1c2ccccc2Sc2ccccc21.O=C(O)C(O)C(O)C(=O)O` (centres unmarked) [TRIMEPRAZINE TARTRATE], in [12], the “Percent Inhibition (%)” value is reported as 78%.
For `CC(CN(C)C)CN1c2ccccc2CCc2ccccc21` (centres unmarked) [TRIMIPRAMINE MALEATE], the inhibition at 40 µM in data set [12] is 56%.
Same read-out and setting: with `Cc1ccc(Sc2ccccc2N2CCNCC2)c(C)c1` [VORTIOXETINE HYDROBROMIDE] the figure was 63%.
For `CCOC(=O)Nc1ccc(NCc2ccc(F)cc2)nc1N` [[…]], the inhibition at 40 µM in [12] came to 50%.
With `COc1c(O)cc2oc3cc(O)c(CC=C(C)C)c(O)c3c(=O)c2c1CC=C(C)C` [alpha-MANGOSTIN], in data set [12], the “Percent Inhibition (%)” value was determined as 86%.
For the compound `CCN(CC)Cc1cc(Nc2ccnc3cc(Cl)ccc23)ccc1O` [amodiaquine], the IC50 in data set [2] (setting [16]) came out at 2500 nM. For the same compound, the CC50 in data set [13] came out at 34700 nM.
As to `CO/C1=C\C(C)=C\[C@@H](C)[C@@H](O)[C@@H](C)C/C(C)=C/C=C/[C@H](OC)[C@@H]([C@@H](C)[C@@H](O)[C@H](C)[C@@]2(O)C[C@@H](O)[C@H](C)[C@@H](C(C)C)O2)OC1=O` [bafilomycin A1], the IC50 in data set [1] stood at 0.8 nM; in data set [2] (Severe acute respiratory syndrome coronavirus 2, HeLa-ACE2, HeLa-ACE2 (-TMPRSS2), WT PsV, read-out: IC50, inhibition of PsV entry), 0.4 nM; in data set [3] it was 0.5 nM; in [4] it was 1.9 nM; in data set [5] it was 9.6 nM; in data set [6], 0.4 nM. In addition, the IC50 in data set [7] worked out at 9 nM; in data set [8] it was 0.3 nM; in [14] (HeLa-ACE2 cells), 0.9 nM; in [11], 3.4 nM. Further, the “potency of bafilomycin A1 relative to Camostat in stopping viral entry” value in [5] (Vero-TMPRSS2, ratio of IC50 values) is reported as 26 fold. For the same compound, the “effect on SARS-CoV-2 infection titers (in words)” value in [6] and in data set [7] was “significantly reduced” throughout. For the same compound, the “associated cell cytotoxicity (in words)” value in data set [15] was “without displaying any associated cell cytotoxicity”. Besides, the “inhibition of PsV entry by single compound (in words)” value in data set [9] is “neither Camostat nor bafilomycin A1 alone fully inhibited PsV entry”.
Turning to `CCN(CC)CCCC(C)Nc1ccnc2cc(Cl)ccc12` (centres unmarked) [chloroquine], the IC50 in [2] (setting [16]) amounted to 2600 nM. For the same compound, the CC50 in data set [13] came to 25700 nM.
Turning to `O=C(Nc1ccc([N+](=O)[O-])cc1Cl)c1cc(Cl)ccc1O` [niclosamide], the “PsV infection (in words)” value in data set [2] (setting [18]) is reported as “no measurable infection”. For the same compound, in data set [12], the inhibition at 40 µM worked out at 75%. Besides, in [13], the CC50 came out at 400 nM. Moreover, the “endosomal acidification inhibition (in words)” value in [14] (setting [18]) is recorded as “efficient endosomal acidification inhibition”.
`CCN(CC)CCCC(C)Nc1c2ccc(Cl)cc2nc2ccc(OC)cc12` (centres unmarked) [quinacrine]: the IC50 in data set [2] (setting [16]) stood at 900 nM. Further, the CC50 in data set [13] was determined as 1700 nM.
As to ABAMECTIN (avermectin B1a shown), the “Percent Inhibition (%)” value in data set [12] worked out at 59%.
Consider BENZALKONIUM CHLORIDE, for which, in data set [12], the “Percent Inhibition (%)” value is 88%.
Turning to BITHIONATE SODIUM, the “Percent Inhibition (%)” value in data set [12] is recorded as 67%.
The same measure, in the same setting: with CHLOROPHYLLIDE Cu COMPLEX Na SALT the figure was 77%.
In the case of MEPARTRICIN, the “Percent Inhibition (%)” value in [12] is reported as 52%.

One may read the IC50 as the concentration that gives 50% inhibition. A word on the inhibition: it is the change of the read-out against control, counted positive when it falls.
